According to patent US6737383B1, “Herbicidal oxadiazolidines” (priority 1999, dated 2004):

Legend:
soybean = assay: Test B pre/postemergence soybean; format: in vivo, Glycine max
Summary of the method: (§1)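 Response is a visual 0-to-10 score relative to untreated plants, where 0 means no effect and 10 means complete control, taken twelve to sixteen days after application. Treatments went onto soil at planting and onto foliage of 1- to 4-leaf plants, using a surfactant-containing non-phytotoxic solvent.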

duck salad = assay: Test B flood test duck salad; format: in vivo, Heteranthera limosa
Summary of the method: (§2)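 Each value is a visual injury score relative to controls, with 10 meaning complete control and 0 no effect. Evaluation took place twelve to sixteen days after the 2-leaf-stage plants were treated and kept in the greenhouse.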

sugar beet = assay: Test B pre/postemergence sugar beet; format: in vivo, Beta vulgaris
Summary of the method: as §1

cocklebur = assay: Test B pre/postemergence cocklebur; format: in vivo, Xanthium strumarium
Summary of the method: as §1

giant foxtail = assay: Test B pre/postemergence giant foxtail; format: in vivo, Setaria faberii
Summary of the method: as §1

morningglory = assay: Test B pre/postemergence morningglory; format: in vivo, Ipomoea hederacea
Summary of the method: as §1

corn = assay: Test B pre/postemergence corn; format: in vivo, Zea mays
Summary of the method: as §1

rape = assay: Test B pre/postemergence rape; format: in vivo, Brassica napus
Summary of the method: as §1

wheat = assay: Test B pre/postemergence wheat; format: in vivo, Triticum aestivum
Summary of the method: as §1

velvetleaf = assay: Test B pre/postemergence velvetleaf; format: in vivo, Abutilon theophrasti
Summary of the method: as §1

crabgrass = assay: Test B pre/postemergence crabgrass; format: in vivo, Digitaria sanguinalis
Summary of the method: as §1

bamyardgrass = assay: Test B flood test barnyardgrass; format: in vivo, Echinochloa crus-galli
Summary of the method: as §2

rice = assay: Test B flood test rice; format: in vivo, Oryza sativa
Summary of the method: as §2

purple nutsedge = assay: Test B pre/postemergence purple nutsedge; format: in vivo, Cyperus rotundus; conditions: Postemergence
Summary of the method: as §1

pigweed = assay: Test B pre/postemergence pigweed; format: in vivo, Amaranthus retroflexus
Summary of the method: as §1

wild oat = assay: Test B pre/postemergence wild oat; format: in vivo, Avena fatua
Summary of the method: as §1

[1] = Preemergence, Rate 62 g/ha, scale of 0 to 10 where 0 is no effect and 10 is complete control
[2] = Preemergence, Rate 250 g/ha, scale of 0 to 10 where 0 is no effect and 10 is complete control
[3] = Preemergence, Rate 500 g/ha, scale of 0 to 10 where 0 is no effect and 10 is complete control
[4] = Rate 62 g/ha, Postemergence, scale of 0 to 10 where 0 is no effect and 10 is complete control
[5] = Rate 125 g/ha, Postemergence, scale 0 to 10
[6] = Rate 125 g/ha, Preemergence, scale of 0 to 10 where 0 is no effect and 10 is complete control
[7] = Rate 500 g/ha, Postemergence, scale 0 to 10, 0 no effect, 10 complete control
[8] = Rate 62 g/ha, headed Pre-emergence (flood test species), scale 0 to 10 (0 no effect, 10 complete control)
[9] = Rate 125 g/ha, Pre-emergence, flood test species, scale 0 to 10 where 0 is no effect and 10 is complete control
[10] = Rate 250 g/ha, Pre-emergence, flood-test species, scale 0 to 10, 0 is no effect, 10 is complete control
[11] = Rate 500 g/ha, Pre-emergence, flood test species, scale 0 to 10 (0 no effect, 10 complete control)

Cc1ccccc1-n1c(=O)on(C(=O)N(c2ccc(N(C)C)cc2)C(C)C)c1=O [Compound 237]
Soybean plant response rating (soybean; [1]): 0
Soybean plant response rating (soybean; [2]): 0
Plant response rating, Soybean (soybean; [3]): 0
Soybean plant response rating (soybean; [4]): 0
Soybean plant response rating (soybean; [5]): 1
Soybean plant response rating (soybean; [6]): 0
Plant response rating (0 to 10; 0 is no effect, 10 is complete control), Soybean (soybean; Rate 250 g/ha, Postemergence): 1
Soybean plant response rating (soybean; [7]): 1
Ducksalad plant response rating (duck salad; [8]): 0
Ducksalad plant response rating (duck salad; [9]): 0
Ducksalad plant response rating (duck salad; [10]): 0
Ducksalad plant response rating (duck salad; [11]): 0
Sugarbeets plant response rating (sugar beet; [1]): 0
Sugarbeets plant response rating (sugar beet; [2]): 0
Plant response rating, Sugarbeets (sugar beet; [3]): 0
Sugarbeets plant response rating (sugar beet; [4]): 0
Sugarbeets plant response rating (sugar beet; [5]): 0
Sugarbeets plant response rating (sugar beet; [6]): 0
Plant response rating (0 to 10; 0 is no effect, 10 is complete control), Sugarbeets (sugar beet; Rate 250 g/ha, Postemergence): 0
Sugarbeets plant response rating (sugar beet; [7]): 0
Cocklebur plant response rating (cocklebur; [1]): 0
Cocklebur plant response rating (cocklebur; [2]): 0
Plant response rating, Cocklebur (cocklebur; [3]): 0
Cocklebur plant response rating (cocklebur; [4]): 0
Cocklebur plant response rating (cocklebur; [5]): 0
Cocklebur plant response rating (cocklebur; [6]): 0
Plant response rating (0 to 10; 0 is no effect, 10 is complete control), Cocklebur (cocklebur; Rate 250 g/ha, Postemergence): 0
Cocklebur plant response rating (cocklebur; [7]): 0
Giant foxtail plant response rating (giant foxtail; [1]): 0
Giant foxtail plant response rating (giant foxtail; [2]): 4
Plant response rating, Giant foxtail (giant foxtail; [3]): 4
Giant foxtail plant response rating (giant foxtail; [4]): 0
Giant foxtail plant response rating (giant foxtail; [5]): 0
Giant foxtail plant response rating (giant foxtail; [6]): 0
Plant response rating (0 to 10; 0 is no effect, 10 is complete control), Giant foxtail (giant foxtail; Rate 250 g/ha, Postemergence): 0
Giant foxtail plant response rating (giant foxtail; [7]): 0
Morningglory plant response rating (morningglory; [1]): 0
Morningglory plant response rating (morningglory; [2]): 0
Plant response rating, Morningglory (morningglory; [3]): 2
Morningglory plant response rating (morningglory; [4]): 2
Morningglory plant response rating (morningglory; [5]): 2
Morningglory plant response rating (morningglory; [6]): 0
Plant response rating (0 to 10; 0 is no effect, 10 is complete control), Morningglory (morningglory; Rate 250 g/ha, Postemergence): 3
Morningglory plant response rating (morningglory; [7]): 6
Corn plant response rating (corn; [1]): 0
Corn plant response rating (corn; [2]): 0
Plant response rating, Corn (corn; [3]): 0
Corn plant response rating (corn; [4]): 0
Corn plant response rating (corn; [5]): 0
Corn plant response rating (corn; [6]): 0
Plant response rating (0 to 10; 0 is no effect, 10 is complete control), Corn (corn; Rate 250 g/ha, Postemergence): 0
Corn plant response rating (corn; [7]): 0
Rape plant response rating (rape; [1]): 0
Rape plant response rating (rape; [2]): 0
Plant response rating, Rape (rape; [3]): 0
Rape plant response rating (rape; [4]): 0
Rape plant response rating (rape; [5]): 0
Rape plant response rating (rape; [6]): 0
Plant response rating (0 to 10; 0 is no effect, 10 is complete control), Rape (rape; Rate 250 g/ha, Postemergence): 0
Rape plant response rating (rape; [7]): 0
Wheat plant response rating (wheat; [1]): 0
Wheat plant response rating (wheat; [2]): 0
Plant response rating, Wheat (wheat; [3]): 0
Wheat plant response rating (wheat; [4]): 0
Wheat plant response rating (wheat; [5]): 0
Wheat plant response rating (wheat; [6]): 0
Plant response rating (0 to 10; 0 is no effect, 10 is complete control), Wheat (wheat; Rate 250 g/ha, Postemergence): 0
Wheat plant response rating (wheat; [7]): 0
Velvetleaf plant response rating (velvetleaf; [1]): 0
Velvetleaf plant response rating (velvetleaf; [2]): 0
Plant response rating, Velvetleaf (velvetleaf; [3]): 0
Velvetleaf plant response rating (velvetleaf; [4]): 0
Velvetleaf plant response rating (velvetleaf; [5]): 0
Velvetleaf plant response rating (velvetleaf; [6]): 0
Plant response rating (0 to 10; 0 is no effect, 10 is complete control), Velvetleaf (velvetleaf; Rate 250 g/ha, Postemergence): 0
Velvetleaf plant response rating (velvetleaf; [7]): 2
Crabgrass plant response rating (crabgrass; [1]): 0
Crabgrass plant response rating (crabgrass; [2]): 2
Plant response rating, Crabgrass (crabgrass; [3]): 3
Crabgrass plant response rating (crabgrass; [4]): 0
Crabgrass plant response rating (crabgrass; [5]): 0
Crabgrass plant response rating (crabgrass; [6]): 0
Plant response rating (0 to 10; 0 is no effect, 10 is complete control), Crabgrass (crabgrass; Rate 250 g/ha, Postemergence): 0
Crabgrass plant response rating (crabgrass; [7]): 0
Barnyardgrass plant response rating (bamyardgrass; [8]): 0
Barnyardgrass plant response rating (bamyardgrass; [9]): 0
Barnyardgrass plant response rating (bamyardgrass; [10]): 0
Barnyardgrass plant response rating (bamyardgrass; [11]): 0
Rice plant response rating (rice; [8]): 0
Rice plant response rating (rice; [9]): 0
Rice plant response rating (rice; [10]): 0
Rice plant response rating (rice; [11]): 0
Nutsedge plant response rating (purple nutsedge; Rate 62 g/ha, scale of 0 to 10 where 0 is no effect and 10 is complete control): 0
Nutsedge plant response rating (purple nutsedge; Rate 125 g/ha, scale 0 to 10): 0
Plant response rating (0 to 10; 0 is no effect, 10 is complete control), Nutsedge (purple nutsedge; Rate 250 g/ha): 0
Nutsedge plant response rating (purple nutsedge; Rate 500 g/ha, scale 0 to 10, 0 no effect, 10 complete control): 0
Redroot pigweed plant response rating (pigweed; [1]): 0
Redroot pigweed plant response rating (pigweed; [2]): 0
Plant response rating, Redroot pigweed (pigweed; [3]): 0
Redroot pigweed plant response rating (pigweed; [4]): 0
Redroot pigweed plant response rating (pigweed; [5]): 0
Redroot pigweed plant response rating (pigweed; [6]): 0
Plant response rating (0 to 10; 0 is no effect, 10 is complete control), Redroot pigweed (pigweed; Rate 250 g/ha, Postemergence): 2
Redroot pigweed plant response rating (pigweed; [7]): 3
Wild oats plant response rating (wild oat; [1]): 0
Wild oats plant response rating (wild oat; [2]): 0
Plant response rating, Wild oats (wild oat; [3]): 0
Wild oats plant response rating (wild oat; [4]): 0
Wild oats plant response rating (wild oat; [5]): 0
Wild oats plant response rating (wild oat; [6]): 0
Plant response rating (0 to 10; 0 is no effect, 10 is complete control), Wild oats (wild oat; Rate 250 g/ha, Postemergence): 0
Wild oats plant response rating (wild oat; [7]): 0
